The text below walks through data of ChEMBL document CHEMBL3045978, “Sensitivity of Botrytis cinerea to chitosan and acibenzolar-S-methyl” (Pest Manag Sci, 2010).

SMILES strings stand for the structures. In brackets after ≈: the same amount, converted by molar mass. Activity calls are given as the source filed them. The calls are words filed in the database; no cut-off is given here.

Test [1] relates to Botrytis cinerea. Kind of test: Antifungal activity against Botryotinia fuckeliana infected grape assessed as lesion diameter at 3 mg/ml applied by dipping 24 hr prior to infection measured after 4 days at 24 degC (reference value: 30.56 mm). It counts as functional.
Test [2] concerns Botrytis cinerea. The test is described as follows: Growth inhibition of Botryotinia fuckeliana at 0.5 mg/ml after 4 days relative to control. The conditions noted are these: 96 h, read-out: GI. It counts as functional.
In test [3] the test system is Botrytis cinerea. Kind of test: Antifungal activity against Botryotinia fuckeliana assessed as mycelial growth after 4 days. It counts as functional, organism-based. The conditions noted are these: 96 h.
Test [4] deals with Botrytis cinerea. Kind of test: Antifungal activity against Botryotinia fuckeliana infected grape assessed as decrease in lesion diameter at 3 mg/ml applied by dipping 24 hr prior to infection measured after 4 days at 4 degC relative to untreated-control. It counts as functional, organism-based.
Test [5] relates to Botrytis cinerea. The test is described as follows: Antifungal activity against Botryotinia fuckeliana assessed as mycelial growth at 3 mg/ml after 4 days (reference value: 85 mm). It counts as functional.
The subject of test [6] is Botrytis cinerea. The test is described as follows: Antifungal activity against Botryotinia fuckeliana assessed as mycelial growth at 2 mg/ml after 4 days (reference value: 85 mm). It counts as functional.
Test [7] has as its system Botrytis cinerea. Kind of test: Antifungal activity against Botryotinia fuckeliana infected in grape assessed as lesion diameter at 1 mg/ml applied by dipping 24 hr prior to infection measured after 4 days at 24 degC (reference value: 30.56 mm). It counts as functional.
Test [8] relates to Botrytis cinerea. Kind of test: Antifungal activity against Botryotinia fuckeliana infected grape assessed as decrease in lesion diameter at 1 to 3 mg/ml applied by dipping 24 hr prior to infection measured after 5 to 7 days at 4 degC relative to untreated-control. It counts as functional, organism-based.
The test system of test [9] is Botrytis cinerea. The test is described as follows: Antifungal activity against Botryotinia fuckeliana infected grape assessed as decrease in lesion diameter at 1 mg/ml applied by dipping 24 hr prior to infection measured after 4 days at 4 degC relative to untreated-control. It counts as functional, organism-based.
Test [10] deals with Botrytis cinerea. The test is described as follows: Growth inhibition of Botryotinia fuckeliana at 1 mg/ml after 4 days relative to control. It counts as functional. The note with it: 96 h, read-out: GI.
In test [11] the test system is Botrytis cinerea. The test is described as follows: Antifungal activity against Botryotinia fuckeliana infected grape assessed as decrease in lesion diameter at 3 mg/ml applied by dipping 24 hr prior to infection measured after 3 days at 24 degC relative to untreated-control. It counts as functional, organism-based.
In test [12] the test system is Botrytis cinerea. The test is described as follows: Growth inhibition of Botryotinia fuckeliana at 5 mg/ml after 4 days relative to control. It counts as functional. The conditions noted are these: 96 h, read-out: GI.
The subject of test [13] is Botrytis cinerea. The test is described as follows: Antifungal activity against Botryotinia fuckeliana infected grape assessed as decrease in lesion diameter at 3 mg/ml applied by dipping 24 hr prior to infection measured after 3 days at 4 degC relative to untreated-control. It counts as functional, organism-based.
Test [14] relates to Botrytis cinerea. Kind of test: Growth inhibition of Botryotinia fuckeliana at 4 mg/ml after 4 days relative to control. The note with it: 96 h, read-out: GI. It counts as functional.

Turning to `CSC(=O)c1cccc2nnsc12` [ACIBENZOLAR-S-METHYL], the Activity with Botrytis cinerea [1] was 16.99 mm; in the test on Botrytis cinerea [5], 44.72 mm; in the test on Botrytis cinerea [6], 54.26 mm; in the test on Botrytis cinerea [7], 17.94 mm. For the same compound, the inhibition of growth at 500 µg/mL with Botrytis cinerea [2] came to 16.3%. In addition, the half-maximal effective concentration (EC50) in the test on Botrytis cinerea [3] was determined as 3440 µg/mL (≈ 16.4 mM). Also, the outcome in the test on Botrytis cinerea [4], in the test with Botrytis cinerea [8], with Botrytis cinerea [9], with Botrytis cinerea [11] and with Botrytis cinerea [13] was Active. Also, in the test on Botrytis cinerea [10], the inhibition of growth at 1000 µg/mL was 23.1%. Moreover, the inhibition of growth at 5000 µg/mL in the test on Botrytis cinerea [12] was 66.2%. In addition, in the test with Botrytis cinerea [14], the inhibition of growth at 4000 µg/mL is 55.6%.
